# Assay results: US4454341A, “Naphthyl or tetrahydronaphthyl-substituted naphthoic acid and derivatives” (SRI International, priority 1983, dated 1984)
# Columns and labels:
# Ornithine Decarboxylase = assay: Ornithine decarboxylase (ODC) assay: inhibition of TPA induction of ODC in mouse skin; type: in vivo, mouse (female Charles River CD-1); conditions: topical, 1 hour before TPA (17 nmol)
# Procedure: (§1) The ODC assay measures a compound's ability to prevent the induction of ODC. The tracheal organ culture assay measures a compound's ability to reverse keratinization.
# The ODC assay is carried out as follows. Female Charles River CD-1 mice from Charles River Breeding Laboratories, Wilmington, Mass., are used (age 7 to 9 weeks). The dorsal hair of the mice is shaved 1 to 2 days before testing, and only mice showing no hair regrowth are used. A single dose of 12-O-tetradecanoylphorbol-13-acetate (TPA) (10.5 μg, 17 nmol) in 0.2 mL of acetone is applied topically to the back of each mouse. The test compound, at one of three dose levels (1.7, 17 and 170 nmol), dissolved in 0.2 mL of acetone is applied 1 hour before the TPA treatment to the test groups; the control group is treated with acetone alone. The mice are killed by cervical dislocations five hours after TPA treatment. Determinations are done in triplicate.
# The epidermis is obtained from the sacrificed animals. To obtain sufficient material, the dorsal skins from 2 to 3 mice in each treatment group are pooled. The depilatory agent Nudit® (Helena Rubinstein, N.Y.) is applied to the shaved area of the skin; after 5 minutes, it is washed off thoroughly with cold tap water. Then the skin is excised and plunged immediately into ice-cold water; it is then placed in a 55° C. water bath for 30 seconds and reimmersed in ice-cold water for at least another 30 seconds. The skin is placed epidermis side up on a cold plate, and the epidermis is scraped off with a razor blade. The pooled epidermal sheets are homogenized (Polytron PT-10 homogenizer) at 0° to 4° C. for 15-20 seconds in 50 mM sodium phosphate and 0.1 mM ethylenediaminetetraacetic acid (EDTA), at a volume of 1 mL/skin.
# The supernatant fraction remaining after centrifugation of the homogenate at 10,000×g for 30 seconds at 0° C. is used for the enzyme assay. Enzyme activity is determined using the microassay for ODC as described by Verma and Boutwell to measure the release of ^14 CO2 from DL-[1-^14 C]-ornithine (58 mCi/mmol) after incubation with the 10,000×g supernatant. The incubations are carried out by decanting, with a Pasteur pipette, 100 μL of the supernatant containing 100 to 120 μg of protein into two or three 15-mL Corex tubes in a shaking water bath at 37° C. The assay mixture in the tubes consists of 50 μL of 100 mM sodium phosphate buffer (pH 7.2), 10 μL of 4 mM pyridoxal phosphate, 40 μL of 25 mM dithiothreitol, and 1 μL of 0.1 M EDTA. The center wells in the tubes are filled with 200 μL of a 2:1 solution (v/v) of ethanolamine:2-methoxyethanol. The reaction is started by adding 50 μL of substrate (0.5 μCi of DL-[1-^14 C]-ornithine in 2 mM cold ornithine) at 1-minute intervals by injection to each of the stoppered tubes. Incubations are routinely carried out at 37° C. for 30 to 60 minutes. The reaction is stopped by addition of 0.5 ml of 2M citric acid, and incubation is continued for an additional hour without heating to ensure complete absorption of ^14 CO2.
# Radioactivity is measured using a toluene-based scintillant (4 g of PPO and 50 mg of POPOP/L of toluene) in a Beckman LS-250 liquid scintillation counter. Enzyme activity is determined in triplicate and expressed as nanomoles of CO2 released in 30 minutes per milligram of protein. Enzyme activity is linear for the protein concentration used. The protein concentrations of the epidermal extracts are determined by the Lowry procedure, using bovine serum albumin as the standard.
# [1] = system: Hamster Tracheal Organ Culture (keratinization); assay: Tracheal organ culture assay (reversal of keratinization); type: cell-based; conditions: 10 days in culture
# Procedure: as §1
# The tracheal organ culture assay is carried out as follows. Tracheas are taken from hamsters that are in very early stages of vitamin A deficiency and placed in organ culture. At the time of culture, the animals are still gaining weight; the tracheal epithelium is generally low columnar or cuboidal, with only occasional patches of squamous metaplasia. Each trachea is opened from the larynxto the carina along the membranous dorsal wall and cultured in a serum-free medium (CMRL-1066; with crystalline bovine insulin, 0.1 μg/ml; hydrocortisone hemisuccinate, 0.1 μg/ml; glutamine, 2 mM; penicillin, 100 units/ml; and streptomycin, 100 μg/ml, added). Cultures are gassed with 50% oxygen, 45% nitrogen, and 5% CO2. The culture dishes are rocked at 35.5-36.0 degrees to allow the tracheas contact with both gas and medium. All tracheas are grown in medium containing no retinoid for the first 3 days. At the end of 3 days, some tracheas are harvested; almost all of these tracheas have significant squamous metaplasia, and approximately 60% have keratinized lesions. The remaining tracheas are then divided into different groups which are treated with either: (1) retinoid dissolved in dimethylsulfoxide (final concentration of DMSO in culture medium is never greater than 0.1%) or (2) an equivalent amount of DMSO alone. Culture medium is changed three times a week, and all of the remaining tracheas are harvested at the end of 10 days in culture. Tracheas are fixed in 10% buffered formalin and embedded in paraffin. Cross sections of five micrometers are made through the mid-portion, stained with hematoxylin and eosin, and then scored with a microscope for the presence of keratin and keratohyaline granules, both of which are found in approximately 90% of control cultures that received no retinoid for the entire 10 day culture period.
# [2] = system: ornithine decarboxylase (ODC); conditions: literature, copending application or unpublished data; cited from earlier work
Compound,"Inhibition of Induction of Ornithine Decarboxylase by 12-O-Tetradecanoylphorbol-13-acetate in Mouse Skin, % Inhibition of Control (Ornithine Decarboxylase; Dose 1.7 nmol) [%]","Inhibition of Induction of Ornithine Decarboxylase by 12-O-Tetradecanoylphorbol-13-acetate in Mouse Skin, % Inhibition of Control (Ornithine Decarboxylase; Dose 17 nmol)","Reversal of Keratinization in Hamster Tracheal Organ Culture, Active Cultures (%) ([1]; Conc 10^-9 M)","Reversal of Keratinization in Hamster Tracheal Organ Culture, Active/Total Cultures ([1]; Conc 10^-9 M)","Reversal of Keratinization in Hamster Tracheal Organ Culture, Active Cultures (%) ([1]; Conc 10^-10 M)","Reversal of Keratinization in Hamster Tracheal Organ Culture, Active/Total Cultures ([1]; Conc 10^-10 M)","Reversal of Keratinization in Hamster Tracheal Organ Culture, Active Cultures (%) ([1]; Conc 10^-11 M)","Reversal of Keratinization in Hamster Tracheal Organ Culture, Active/Total Cultures ([1]; Conc 10^-11 M)",activity in the ODC assay (in words) [2],"Reversal of Keratinization in Hamster Tracheal Organ Culture, Active Cultures (%) ([1]; Conc 10^-8 M)","Reversal of Keratinization in Hamster Tracheal Organ Culture, Active/Total Cultures ([1]; Conc 10^-8 M)"
"CC1(C)CCC(C)(C)c2cc(-c3ccc4cc(C(=O)O)ccc4c3)ccc21 [6-(1,2,3,4-Tetrahydro-1,1,4,4-tetramethyl-6-naphthyl)-2-naphthoic acid]",56,80%,100,7/7,100,7/7,71,5/7,,,
"CC1=C(C=Cc2ccc3cc(C(=O)O)ccc3c2)C(C)(C)CCC1 [6-[2-(2,6,6-trimethyl-1-cyclohexen-1-yl)ethenyl]-2-naphthoic acid]",,,,,,,,,exhibited activity in the ODC assay,,
"CCOC(=O)c1ccc(/C=C(\C)c2ccc3c(c2)C(C)(C)CCC3(C)C)cc1 [Ethyl 4-[(E)-2-(1,2,3,4-tetrahydro-1,1,4,4-tetramethyl-6-naphthyl)-1-propen-1-yl]benzoate]",86,86%,,,,,,,exhibits activity in the ODC assay,,
"CCOC(=O)c1ccc2cc(-c3ccc4c(c3)C(C)(C)CCC4(C)C)ccc2c1 [Ethyl 6-(1,2,3,4-tetrahydro-1,1,4,4-tetramethyl-6-naphthyl)-2-naphthoate]",50,75%,,,,,,,,,
CC1=C(/C=C/C(C)=C/C=C/C(C)=C/C(=O)O)C(C)(C)CCC1 [Retinoic Acid],,87-91%,88,419/474,52,134/256,,,,100,236/236
